Structures are written as SMILES.

A word on the EC30: it is the concentration at which the effect reaches the 30% level.

T1 sequence (P13569 with tags, fused parts or gaps DEL508-508): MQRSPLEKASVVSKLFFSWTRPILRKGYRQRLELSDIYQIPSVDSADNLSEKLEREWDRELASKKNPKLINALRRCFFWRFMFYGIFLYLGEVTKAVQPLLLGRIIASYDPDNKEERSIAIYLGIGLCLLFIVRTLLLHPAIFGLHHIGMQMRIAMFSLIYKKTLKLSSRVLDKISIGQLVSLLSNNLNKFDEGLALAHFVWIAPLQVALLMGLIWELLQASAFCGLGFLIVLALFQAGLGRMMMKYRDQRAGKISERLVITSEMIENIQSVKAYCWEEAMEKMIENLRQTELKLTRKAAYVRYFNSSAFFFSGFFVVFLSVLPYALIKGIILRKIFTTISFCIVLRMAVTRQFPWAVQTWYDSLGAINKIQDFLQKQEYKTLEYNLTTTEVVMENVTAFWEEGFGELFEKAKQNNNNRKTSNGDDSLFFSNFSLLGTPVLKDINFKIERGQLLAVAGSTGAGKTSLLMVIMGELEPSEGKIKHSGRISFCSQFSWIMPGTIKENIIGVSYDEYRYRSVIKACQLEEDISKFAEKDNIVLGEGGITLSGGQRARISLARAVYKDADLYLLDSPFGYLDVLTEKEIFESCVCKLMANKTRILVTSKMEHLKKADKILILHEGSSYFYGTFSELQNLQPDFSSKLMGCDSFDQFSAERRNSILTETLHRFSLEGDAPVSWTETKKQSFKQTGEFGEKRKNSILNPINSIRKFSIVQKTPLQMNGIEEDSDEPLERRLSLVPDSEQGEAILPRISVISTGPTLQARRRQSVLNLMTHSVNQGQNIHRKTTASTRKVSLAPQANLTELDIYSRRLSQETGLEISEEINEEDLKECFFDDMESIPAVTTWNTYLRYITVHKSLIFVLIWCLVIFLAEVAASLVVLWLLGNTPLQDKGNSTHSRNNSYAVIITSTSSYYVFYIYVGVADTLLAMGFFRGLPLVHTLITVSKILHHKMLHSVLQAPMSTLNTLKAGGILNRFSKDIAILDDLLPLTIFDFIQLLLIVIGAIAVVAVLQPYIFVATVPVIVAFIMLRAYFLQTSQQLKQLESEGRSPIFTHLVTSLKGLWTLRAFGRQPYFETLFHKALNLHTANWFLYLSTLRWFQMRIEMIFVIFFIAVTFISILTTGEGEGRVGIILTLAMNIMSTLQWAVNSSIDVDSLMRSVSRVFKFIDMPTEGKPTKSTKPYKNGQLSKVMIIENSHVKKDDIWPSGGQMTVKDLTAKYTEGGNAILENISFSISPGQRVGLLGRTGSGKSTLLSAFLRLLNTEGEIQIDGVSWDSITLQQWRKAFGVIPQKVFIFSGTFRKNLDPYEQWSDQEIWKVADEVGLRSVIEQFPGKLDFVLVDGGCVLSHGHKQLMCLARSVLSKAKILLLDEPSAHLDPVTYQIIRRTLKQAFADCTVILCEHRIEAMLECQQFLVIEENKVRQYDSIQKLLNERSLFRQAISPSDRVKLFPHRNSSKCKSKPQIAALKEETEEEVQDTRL

The first experiment concerns the target T1, F508del (Homo sapiens, UniProt P13569, DEL508-508).
T1 construct: expressed in transfected cells
Put plainly: Protocol 2: FRET membrane potential optical assay (VIPR), identification of correction compounds. The experiment is classed as cell-based. The settings on record: F508del CFTR modulator activity; compounds of Table 1; read-out: EC30. In outline: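 Single-addition HTS format: F508del-expressing NIH3T3 cells pre-incubated 16 hrs at 37° C. ± compound, with 27° C. culture as positive control. Channel activation by forskolin 10 μM and genistein 20 μM upon switch to gluconate bath, pH 7.4; read-out is FRET-based depolarization signal.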
Regarding `COc1cccc(-c2ccc(C(=O)NS(=O)(=O)c3cccnc3N)c(N3C[C@@H](C)CC3(C)C)n2)c1OC` [Compound 2436, N-[(2-amino-3-pyridyl)sulfonyl]-6-(2,3-dimethoxyphenyl)-2-[(4S)-2,2,4-trimethylpyrrolidin-1-yl]pyridine-3-carboxamide], the EC30 was less than 3 µM.

On to `CC1CN(c2ncccc2C(=O)NS(=O)(=O)c2cccc(OCc3cccc(N(C)C)c3)n2)C(C)(C)C1` (stereo not shown) [Compound 2012, N—[[6-[[3-(dimethylamino)phenyl]methoxy]-2-pyridyl]sulfonyl]-2-(2,2,4-trimethylpyrrolidin-1-yl)pyridine-3-carboxamide], for which the EC30 is less than 3 µM.

Consider `C[C@@H]1CN(c2nc(-c3cccc(C(F)(F)F)c3)ccc2C(=O)NS(=O)(=O)c2ccc[nH]c2=O)C(C)(C)C1` [Compound 2144, N-[(2-oxo-1H-pyridin-3-yl)sulfonyl]-6-[3-(trifluoromethyl)phenyl]-2-[(4S)-2,2,4-trimethylpyrrolidin-1-yl]pyridine-3-carboxamide], for which the EC30 was less than 3 µM.

In the case of `CC1CN(c2ncccc2C(=O)NS(=O)(=O)c2cccc(OCCc3cccc(F)c3)n2)C(C)(C)C1` (stereo not shown) [Compound 2740], the EC30 was less than 3 µM.

Take `C[C@@H]1CN(c2nc(O[C@H]3CCOC3)c(F)cc2C(=O)NS(=O)(=O)c2cccc(N)n2)C(C)(C)C1` [Compound 2056, N-[(6-amino-2-pyridyl)sulfonyl]-5-fluoro-6-[(3S)-tetrahydrofuran-3-yl]oxy-2-[(4S)-2,2,4-trimethylpyrrolidin-1-yl]pyridine-3-carboxamide]: the EC30 was in the range of 3 to 10 µM.

As for `CC1CN(c2ncccc2C(=O)NS(=O)(=O)c2cccc(N3CCC(F)CC3)n2)C(C)(C)C1` (stereo not shown) [Compound 2453, N—[[6-(4-fluoro-1-piperidyl)-2-pyridyl]sulfonyl]-2-(2,2,4-trimethylpyrrolidin-1-yl)pyridine-3-carboxamide], the EC30 was less than 3 µM.

Take `Cc1cccc(Oc2cccc(S(=O)(=O)NC(=O)c3cccnc3N3CC(C)CC3(C)C)n2)c1` (stereo not shown) [Compound 2320, N—[[6-(3-methylphenoxy)-2-pyridyl]sulfonyl]-2-(2,2,4-trimethylpyrrolidin-1-yl)pyridine-3-carboxamide]: the EC30 was less than 3 µM.

On to `CCN(CC)c1cccc(S(=O)(=O)NC(=O)c2cccnc2N2CC(C)CC2(C)C)n1` (stereo not shown) [Compound 2726], for which the EC30 is less than 3 µM.

Regarding `C[C@@H]1CN(c2nc(-c3cccc4c3OCC4)ccc2C(=O)NS(=O)(=O)c2ccc[nH]c2=O)C(C)(C)C1` [Compound 2583, 6-(2,3-dihydrobenzofuran-7-yl)-N-[(2-oxo-1H-pyridin-3-yl)sulfonyl]-2-[(4S)-2,2,4-trimethylpyrrolidin-1-yl]pyridine-3-carboxamide], the EC30 is 3 to 10 µM.

For the compound `CCOc1ccc(C)cc1-c1ccc(C(=O)NS(=O)(=O)c2ccc[nH]c2=O)c(N2C[C@@H](C)CC2(C)C)n1` [Compound 2410, 6-(2-ethoxy-5-methyl-phenyl)-N-[(2-oxo-1H-pyridin-3-yl)sulfonyl]-2-[(4S)-2,2,4-trimethylpyrrolidin-1-yl]pyridine-3-carboxamide], the EC30 is less than 3 µM.

Take `C[C@@H]1CN(c2nc(-c3ccc(F)cc3F)ccc2C(=O)NS(=O)(=O)c2cccc(N)n2)C(C)(C)C1` [Compound 2372, N-[(6-amino-2-pyridyl)sulfonyl]-6-(2,4-difluorophenyl)-2-[(4S)-2,2,4-trimethylpyrrolidin-1-yl]pyridine-3-carboxamide]: the EC30 was less than 3 µM.

Still in this experiment, the particulars now being: Table 3; compounds of Table 1 as modulators of CFTR activity; protocol not stated.
As for `Cc1cccc(C)c1Cn1nc(-c2ccccc2C#N)cc1C(=O)NS(=O)(=O)c1ccccc1` [Compound 99, N-(benzenesulfonyl)-5-(2-cyanophenyl)-2-[(2,6-dimethylphenyl)methyl]pyrazole-3-carboxamide], the EC30 result was “+++ (“+++” means <3 uM)”.

Turning to `Cc1cc(C)c(Oc2nc(-c3cc(F)cc(OCC(C)C)c3)ccc2C(=O)NS(=O)(=O)c2cccc(C#N)n2)c(C)c1` [Compound 771, N-[(6-cyano-2-pyridyl)sulfonyl]-6-(3-fluoro-5-isobutoxy-phenyl)-2-(2,4,6-trimethylphenoxy)pyridine-3-carboxamide], the EC30 result is on record as “+++ (“+++” means <3 uM)”.

As for `CN(c1ccccc1)c1nc(C(C)(C)C)ccc1C(=O)NS(=O)(=O)c1cccc(N)c1` [Compound 85, N-(3-aminophenyl)sulfonyl-6-tert-butyl-2-(N-methylanilino)pyridine-3-carboxamide], the EC30 result was “++ (“++” means between 3 uM and 10 uM)”.

Consider `CC(C)Oc1ccc(-c2ccc(C(=O)NS(=O)(=O)c3ccc[nH]c3=O)c(N3C[C@H](C)CC3(C)C)n2)cn1` [Compound 403, 6-(6-isopropoxy-3-pyridyl)-N-[(2-oxo-1H-pyridin-3-yl)sulfonyl]-2-[(4R)-2,2,4-trimethylpyrrolidin-1-yl]pyridine-3-carboxamide], for which the 30% effect concentration (EC30) entry is “++ (“++” means between 3 uM and 10 uM)”.

Consider `CC(C)(C)c1ccc(C(=O)NS(=O)(=O)c2cccc(N)n2)c(OC2CCCCC2)n1` [Compound 649, N-[(6-amino-2-pyridyl)sulfonyl]-6-tert-butyl-2-(cyclohexoxy)pyridine-3-carboxamide], for which the EC30 entry was “++ (“++” means between 3 uM and 10 uM)”.

In the case of `Cc1cc(C)c(-c2nc(C(C)(C)C)ccc2C(=O)NS(=O)(=O)c2cccc(N)c2)c(C)c1` [Compound 26, N-(3-aminophenyl)sulfonyl-6-tert-butyl-2-(2,4,6-trimethylphenyl)pyridine-3-carboxamide], the EC30 entry was “++ (“++” means between 3 uM and 10 uM)”.

For the compound `CC(C)COc1cccc(-c2ccc(C(=O)NS(=O)(=O)c3cccc(N)n3)c(N3[C@H](C)CC[C@@H]3C)n2)n1` [Compound 432, N-[(6-amino-2-pyridyl)sulfonyl]-2-[(2S,5R)-2,5-dimethylpyrrolidin-1-yl]-6-(6-isobutoxy-2-pyridyl)pyridine-3-carboxamide], the EC30 result is “+++ (“+++” means <3 uM)”.

For `CC(C)COc1cc(F)cc(-c2ccc(C(=O)NS(=O)(=O)c3cccc4[nH]ccc34)c(N3CC(C)CC3(C)C)n2)c1` (stereo not shown) [Compound 549, 6-(3-fluoro-5-isobutoxy-phenyl)-N-(1H-indol-4-ylsulfonyl)-2-(2,2,4-trimethylpyrrolidin-1-yl)pyridine-3-carboxamide], the EC30 result was “+++ (“+++” means <3 uM)”.

In the case of `COc1ccc2c(c1)cc(C(=O)NS(=O)(=O)c1cccc(N)c1)n2Cc1c(C)cc(C)cc1C` [Compound 336, N-(3-aminophenyl)sulfonyl-5-methoxy-1-[(2,4,6-trimethylphenyl)methyl]indole-2-carboxamide], the EC30 entry is “+++ (“+++” means <3 uM)”.

On to `CC(C)COc1cc(F)cc(-c2ccc(C(=O)NS(=O)(=O)c3ccn[nH]3)c(N3CCC4(CC3)OCc3ccccc34)n2)c1` [Compound 506, 6-(3-fluoro-5-isobutoxy-phenyl)-N-(1H-pyrazol-5-ylsulfonyl)-2-spiro[1H-isobenzofuran-3,4′-piperidine]-1′-yl-pyridine-3-carboxamide], for which the EC30 result is reported as “+++ (“+++” means <3 uM)”.

As to `Cc1ccc(Oc2nc(-c3cc(F)cc(OC(C)C)c3)ccc2C(=O)NS(=O)(=O)c2nccnc2N)c(C)c1` [Compound 559, N-(3-aminopyrazin-2-yl)sulfonyl-2-(2,4-dimethylphenoxy)-6-(3-fluoro-5-isopropoxy-phenyl)pyridine-3-carboxamide], the EC30 result is on record as “+++ (“+++” means <3 uM)”.

(Values after patent US10758534B2 (Vertex Pharmaceuticals Incorporated, priority 2014, dated 2020).)
